From ChEMBL document CHEMBL3351661, “Structure-activity relationship studies of antiplasmodial aminomethylthiazoles” (Bioorg Med Chem Lett, 2014)
≈ marks a conversion by molar mass, not a printed value.

Tests used:
Plasmodium falciparum = experiment: microbe, parasite or virus in culture; details: NF54
Description: Antiplasmodial activity against chloroquine-sensitive Plasmodium falciparum NF54 asexual erythrocyte stages by parasite lactate dehydrogenase assay

[1] = Aqueous kinetic solubility at pH 7.4 by turbidimetric assay; type: physicochemical; details: read-out: Kinetic_solubility

Row | IC50 (Plasmodium falciparum) [µM] | solubility kinetic [1] [µg/mL] | SMILES
1 | 43.9 | 40 (≈ 126 µM) | NCc1csc(NC(=O)c2ccc(OC(F)(F)F)cc2)n1
2 | 91.7 | 80 (≈ 334 µM) | NCc1csc(NC(=O)c2cccs2)n1
3 | 149 | 80 (≈ 333 µM) | NCc1csc(NC(=O)c2cscn2)n1
4 | 40.2 | 40 (≈ 133 µM) | NCc1csc(NC(=O)c2ccc(C(F)(F)F)cc2)n1
5 | 146 | 20 (≈ 77.4 µM) | N#Cc1ccc(C(=O)Nc2nc(CN)cs2)cc1
6 | 123 | 80 (≈ 318 µM) | NCc1csc(NC(=O)c2ccc(F)cc2)n1
7 | 43.7 | > 200 | NCc1csc(NC(=O)c2ccnn2Cc2ccccc2)n1
8 | 173 | > 200 | NCc1csc(NC(=O)c2cnccn2)n1

Second part, the compound before the results:

Row | SMILES | IC50 (Plasmodium falciparum) [µM] | solubility kinetic [1] [µg/mL]
9 | Cc1ccc(-c2cc(C(=O)Nc3nc(CN)cs3)n(Cc3ccccc3)n2)cc1 | 2.03 | 40 (≈ 99.1 µM)
10 | CC(C)(C)c1cc(C(=O)Nc2nc(CN)cs2)n(Cc2ccccc2Cl)n1 | 1.84 | 80 (≈ 198 µM)
11 | C[C@H]1[C@H](OC(=O)CCC(=O)O)O[C@@H]2O[C@@]3(C)CC[C@H]4[C@H](C)CC[C@@H]1[C@@]24OO3 [ARTESUNATE] | 0.0052 | –
12 | CC(C)(C)c1cc(C(=O)Nc2nc(CN)cs2)n(Cc2ccc(Cl)cc2)n1 | 12.1 | > 200
13 | CC(C)(C)c1cc(C(=O)Nc2nc(CN)cs2)n(Cc2ccccc2)n1 | 0.0203 | > 200
14 | CC(C)(C)c1cc(C(=O)Nc2nc(CN)cs2)n(Cc2ccc(F)cc2F)n1 | 4.7 | –
15 | CC(C)(C)c1cc(C(=O)Nc2ncc(CN)s2)n(Cc2ccccc2)n1 | 9.09 | 80 (≈ 217 µM)
16 | CC(C)(C)c1cc(C(=O)Nc2ccc(CN)c3ccccc23)n(Cc2ccccc2)n1 | 7.59 | –
17 | CC(C)(C)c1cc(C(=O)Nc2nc(CN)cs2)n(-c2ccccc2)n1 | 67.5 | 160 (≈ 450 µM)
18 | CC(C)(C)c1cc(C(=O)Nc2cccc(CN)n2)n(Cc2ccccc2)n1 | 0.125 | 40 (≈ 110 µM)
19 | CC(C)(C)c1cc(C(=O)Nc2nc(CN)cs2)n(Cc2ccc(Br)cc2)n1 | 12.8 | > 200
20 | CC(C)(C)c1ccc(Cn2nc(C(C)(C)C)cc2C(=O)Nc2nc(CN)cs2)cc1 | 2.58 | 10 (≈ 23.5 µM)
21 | Cc1cc(C(=O)Nc2nc(CN)cs2)n(Cc2ccccc2)n1 | 19.8 | 160 (≈ 489 µM)
